Laboratory results: PMC11694061 (Cancer Research, 2024)
Like-named read-outs stand apart in the source and are kept apart here.

Tests used:
SOS1 in K562 cells = target: T1, SOS1 in K562 cells (Homo sapiens, UniProt Q07889); assay: SOS1 degradation in K562 cells (Western blot); assay type: cell-based
T1 construct: endogenous in cells; host or cells: K562
T1 sequence (Q07889 1-1333): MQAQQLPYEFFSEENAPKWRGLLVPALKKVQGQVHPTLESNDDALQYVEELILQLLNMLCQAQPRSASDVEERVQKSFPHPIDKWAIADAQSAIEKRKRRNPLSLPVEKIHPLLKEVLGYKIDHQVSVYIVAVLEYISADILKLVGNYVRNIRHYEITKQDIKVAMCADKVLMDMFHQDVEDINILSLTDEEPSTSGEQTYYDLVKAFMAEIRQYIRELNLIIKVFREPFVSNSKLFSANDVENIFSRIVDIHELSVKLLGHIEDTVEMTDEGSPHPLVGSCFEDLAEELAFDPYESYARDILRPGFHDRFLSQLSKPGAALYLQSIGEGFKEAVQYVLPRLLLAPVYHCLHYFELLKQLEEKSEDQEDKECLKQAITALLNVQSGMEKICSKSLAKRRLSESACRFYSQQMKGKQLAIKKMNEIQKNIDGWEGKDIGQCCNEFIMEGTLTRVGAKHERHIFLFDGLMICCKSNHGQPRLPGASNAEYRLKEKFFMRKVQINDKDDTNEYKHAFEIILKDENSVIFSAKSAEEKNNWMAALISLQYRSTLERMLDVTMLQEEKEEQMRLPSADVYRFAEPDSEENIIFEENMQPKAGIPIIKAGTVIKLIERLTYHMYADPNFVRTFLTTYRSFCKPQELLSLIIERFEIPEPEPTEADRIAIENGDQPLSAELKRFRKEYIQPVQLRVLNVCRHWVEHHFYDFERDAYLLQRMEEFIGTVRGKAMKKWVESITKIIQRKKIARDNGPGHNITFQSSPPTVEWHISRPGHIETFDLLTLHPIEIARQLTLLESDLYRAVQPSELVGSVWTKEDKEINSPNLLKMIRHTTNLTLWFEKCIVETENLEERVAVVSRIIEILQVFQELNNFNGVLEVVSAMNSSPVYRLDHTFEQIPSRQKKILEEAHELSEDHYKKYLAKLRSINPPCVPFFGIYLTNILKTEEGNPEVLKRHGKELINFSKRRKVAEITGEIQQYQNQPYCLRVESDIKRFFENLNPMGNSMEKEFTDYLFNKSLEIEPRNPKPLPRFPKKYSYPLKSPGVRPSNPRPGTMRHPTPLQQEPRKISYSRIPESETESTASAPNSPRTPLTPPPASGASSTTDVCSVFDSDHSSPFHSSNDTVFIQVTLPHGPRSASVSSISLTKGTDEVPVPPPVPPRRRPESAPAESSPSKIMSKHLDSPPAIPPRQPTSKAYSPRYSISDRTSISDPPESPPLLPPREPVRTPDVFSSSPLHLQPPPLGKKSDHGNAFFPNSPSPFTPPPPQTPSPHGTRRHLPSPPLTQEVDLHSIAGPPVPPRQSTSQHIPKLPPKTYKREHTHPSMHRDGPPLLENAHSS
Text: After treatment, the cells were harvested with SDS lysis buffer, and SDS-PAGE gels were used to split the proteins in the lysate solutions. […] AB_2758039).

K562 cells = assay: Proliferation, K562; assay type: cell-based, human; conditions: Table S1 screening, read-out: IC50 (cell proliferation inhibition in K562 cells)
Procedure: Cells were inoculated onto 96-well plates and treated with compounds in serial dilutions for 3 or 5 days. […] The cell viability of primary patient samples was tested using the CellTiter-Glo Luminescent Assay kit (G7573, Promega) according to the manufacturer’s instructions. […] The optical density (OD) values were obtained using a SPARK microplate reader (Tecan). IC50 was calculated using GraphPad Prism 8.0.2 (nonlinear regression analysis with four parameters). Drug synergy was evaluated with combination index (CI) values using CalcuSyn Demo Version 2.0 software. CI > 1 indicates antagonism, CI < 1 indicates synergy, and CI = 1 indicates additivity.

Row | SMILES | Degradation of SOS1 (%) (SOS1 in K562 cells; 0.1 μM) | Degradation of SOS1 (%) (SOS1 in K562 cells; 1.0 μM) | IC50 (K562 cells) [µM] | percent SOS1 degradation at 0.1 µM (SOS1 in K562 cells; 0.1 μM) [%] | percent SOS1 degradation at 1 µM (SOS1 in K562 cells; 1.0 μM) [%] | IC50 (K562 cells; Homo sapiens, K562) [µM]
1 | COc1cc2nc(C)nc(N[C@H](C)c3cc(N)cc(C(F)(F)F)c3)c2cc1O[C@H]1CCN(CCCSc2cccc3c2CN(C2CCC(=O)NC2=O)C3=O)C1 (stereo partly drawn) [SIAIS561084] | 7.3 ± 8.5 | -19.5 ± 2.2 | 1.31 ± 0.176 |  |  | 
2 | COc1cc2nc(C)nc(N[C@H](C)c3cc(N)cc(C(F)(F)F)c3)c2cc1O[C@H]1CCN(C(=O)CCCCSc2cccc3c2CN(C2CCC(=O)NC2=O)C3=O)C1 (stereo partly drawn) [SIAIS561086] |  |  |  | 22.7 ± 1.7 | 33.5 ± 4.7 | 7.69 ± 0.0912
3 | COc1cc2nc(C)nc(N[C@H](C)c3cc(N)cc(C(F)(F)F)c3)c2cc1O[C@H]1CCN(C(=O)CCCCCSc2cccc3c2CN(C2CCC(=O)NC2=O)C3=O)C1 (stereo partly drawn) [SIAIS561087] |  |  |  | 53.5 ± 0.6 | 39.9 ± 0.9 | 6.51 ± 0.514
4 | COc1cc2nc(C)nc(N[C@H](C)c3cc(N)cc(C(F)(F)F)c3)c2cc1O[C@H]1CCN(CCSc2cccc3c2CN(C2CCC(=O)NC2=O)C3=O)C1 (stereo partly drawn) [SIAIS561091] | 36.2 ± 5.7 | 27.0 ± 7.5 | 1.2 ± 0.0658 |  |  | 
5 | COc1cc2nc(C)nc(N[C@H](C)c3cc(N)cc(C(F)(F)F)c3)c2cc1O[C@H]1CCN(C(=O)CSc2cccc3c2CN(C2CCC(=O)NC2=O)C3=O)C1 (stereo partly drawn) [SIAIS561092] |  |  |  | -26.5 ± 8.3 | 8.1 ± 2.3 | 7.29 ± 1.01
6 | COc1cc2nc(C)nc(N[C@H](C)c3cc(N)cc(C(F)(F)F)c3)c2cc1O[C@H]1CCN(C(=O)CCSc2cccc3c2CN(C2CCC(=O)NC2=O)C3=O)C1 (stereo partly drawn) [SIAIS561093] |  |  |  | 19.9 ± 1.8 | 24.7 ± 4.4 | 16.4 ± 2.44
7 | COc1cc2nc(C)nc(N[C@H](C)c3cc(N)cc(C(F)(F)F)c3)c2cc1O[C@H]1CCN(C(=O)CCCSc2cccc3c2CN(C2CCC(=O)NC2=O)C3=O)C1 (stereo partly drawn) [SIAIS561094] |  |  |  | 32.9 ± 0.4 | 35.3 ± 0.6 | 7.13 ± 0.224
8 | COc1cc2nc(C)nc(N[C@H](C)c3cc(N)cc(C(F)(F)F)c3)c2cc1O[C@H]1CCN(C(=O)CCCCCCSc2cccc3c2CN(C2CCC(=O)NC2=O)C3=O)C1 (stereo partly drawn) [SIAIS561095] |  |  |  | 26.7 ± 3 | 3.9 ± 4.7 | 5.23 ± 1.39
9 | COc1cc2nc(C)nc(N[C@H](C)c3cc(N)cc(C(F)(F)F)c3)c2cc1O[C@H]1CCN(C(=O)CCCCCCCCCSc2cccc3c2CN(C2CCC(=O)NC2=O)C3=O)C1 (stereo partly drawn) [SIAIS561097] |  |  |  | -10.2 ± 5.5 | -20.9 ± 9 | 15.1 ± 2.04
10 | COc1cc2nc(C)nc(N[C@H](C)c3cc(N)cc(C(F)(F)F)c3)c2cc1O[C@H]1CCN(C(=O)CCCCCCCCCCSc2cccc3c2CN(C2CCC(=O)NC2=O)C3=O)C1 (stereo partly drawn) [SIAIS561098] |  |  |  | 1.1 ± 1 | 17 ± 2.2 | 11.5 ± 0.515
11 | COc1cc2nc(C)nc(N[C@H](C)c3cc(N)cc(C(F)(F)F)c3)c2cc1OC1CCN(C(=O)CSc2cccc3c2CN(C2CCC(=O)NC2=O)C3=O)CC1 (stereo partly drawn) [SIAIS561131] |  |  |  | 12.3 ± 6.5 | -2.3 ± 9.5 | 17.8 ± 3.9
12 | COc1cc2nc(C)nc(N[C@H](C)c3cc(N)cc(C(F)(F)F)c3)c2cc1OC1CCN(C(=O)CCCCCCCCCCSc2cccc3c2CN(C2CCC(=O)NC2=O)C3=O)CC1 (stereo partly drawn) [SIAIS561138] |  |  |  | -14.6 ± 1.1 | 11 ± 0.6 | 8.97 ± 0.146
13 | COc1cc2nc(C)nc(N[C@H](C)c3cc(N)cc(C(F)(F)F)c3)c2cc1O[C@H]1CCN(C(=O)CCCCCCCCSc2cccc3c2CN(C2CCC(=O)NC2=O)C3=O)C1 (stereo partly drawn) [SIAIS562079] |  |  |  | 44.4 ± 6.5 | 49.7 ± 14 | 7.08 ± 0.216
14 | COc1cc2nc(C)nc(N[C@H](C)c3cc(N)cc(C(F)(F)F)c3)c2cc1OC1CCN(C(=O)CCCCCCCCSc2cccc3c2CN(C2CCC(=O)NC2=O)C3=O)CC1 (stereo partly drawn) [SIAIS562080] |  |  |  | -46.9 ± 11 | 5.5 ± 3.2 | 4.95 ± 0.412
15 | COc1cc2nc(C)nc(N[C@H](C)c3cc(N)cc(C(F)(F)F)c3)c2cc1O[C@H]1CCN(C(=O)CCCCCCCCCCCSc2cccc3c2CN(C2CCC(=O)NC2=O)C3=O)C1 (stereo partly drawn) [SIAIS562082] |  |  |  | 21.3 ± 0.5 | 71 ± 1.6 | 4.68 ± 1.21
16 | COc1cc2nc(C)nc(N[C@H](C)c3cc(N)cc(C(F)(F)F)c3)c2cc1OC1CCN(C(=O)CCCCCCCCCCCSc2cccc3c2CN(C2CCC(=O)NC2=O)C3=O)CC1 (stereo partly drawn) [SIAIS562083] |  |  |  | -5.4 ± 2.2 | 35.5 ± 1 | 4.13 ± 0.34

The remaining lines, values ahead:

Row | Degradation of SOS1 (%) (SOS1 in K562 cells; 0.1 μM) | Degradation of SOS1 (%) (SOS1 in K562 cells; 1.0 μM) | IC50 (K562 cells) [µM] | percent SOS1 degradation at 0.1 µM (SOS1 in K562 cells; 0.1 μM) [%] | percent SOS1 degradation at 1 µM (SOS1 in K562 cells; 1.0 μM) [%] | IC50 (K562 cells; Homo sapiens, K562) [µM] | SMILES
17 |  |  |  | 57.2 ± 0.7 | 49.7 ± 0.9 | 1.55 ± 0.0714 | COc1cc2nc(C)nc(N[C@H](C)c3cc(N)cc(C(F)(F)F)c3)c2cc1O[C@H]1CCN(C(=O)CCCCCCCSc2cccc3c2CN(C2CCC(=O)NC2=O)C3=O)C1 (stereo partly drawn) [SIAIS561096]
18 |  |  |  | -14.7 ± 10.2 | -3.8 ± 4.2 | 0.112 ± 0.0042 | COc1cc2nc(C)nc(N[C@H](C)c3cc(N)cc(C(F)(F)F)c3)c2cc1OC1CCN(C(=O)CCSc2cccc3c2CN(C2CCC(=O)NC2=O)C3=O)CC1 (stereo partly drawn) [SIAIS561132]
19 |  |  |  | -26.7 ± 1.7 | -4 ± 11.7 | 1.67 ± 0.0177 | COc1cc2nc(C)nc(N[C@H](C)c3cc(N)cc(C(F)(F)F)c3)c2cc1OC1CCN(C(=O)CCCSc2cccc3c2CN(C2CCC(=O)NC2=O)C3=O)CC1 (stereo partly drawn) [SIAIS561133]
20 |  |  |  | 5.2 ± 12.8 | 14.2 ± 11.1 | 3.6 ± 0.103 | COc1cc2nc(C)nc(N[C@H](C)c3cc(N)cc(C(F)(F)F)c3)c2cc1OC1CCN(C(=O)CCCCSc2cccc3c2CN(C2CCC(=O)NC2=O)C3=O)CC1 (stereo partly drawn) [SIAIS561134]
21 |  |  |  | 11.3 ± 4.8 | 12.7 ± 6.3 | 1.85 ± 0.455 | COc1cc2nc(C)nc(N[C@H](C)c3cc(N)cc(C(F)(F)F)c3)c2cc1OC1CCN(C(=O)CCCCCSc2cccc3c2CN(C2CCC(=O)NC2=O)C3=O)CC1 (stereo partly drawn) [SIAIS561135]
22 |  |  |  | 18.2 ± 6.2 | 49.3 ± 2.2 | 2.53 ± 0.261 | COc1cc2nc(C)nc(N[C@H](C)c3cc(N)cc(C(F)(F)F)c3)c2cc1OC1CCN(C(=O)CCCCCCSc2cccc3c2CN(C2CCC(=O)NC2=O)C3=O)CC1 (stereo partly drawn) [SIAIS561136]
23 |  |  |  | 3.6 ± 3.2 | 15.7 ± 3 | 3.06 ± 1.1 | COc1cc2nc(C)nc(N[C@H](C)c3cc(N)cc(C(F)(F)F)c3)c2cc1OC1CCN(C(=O)CCCCCCCCCSc2cccc3c2CN(C2CCC(=O)NC2=O)C3=O)CC1 (stereo partly drawn) [SIAIS561137]
24 |  |  |  | -15.2 ± 2 | 7.7 ± 4.3 | 2.75 ± 0.36 | COc1cc2nc(C)nc(N[C@H](C)c3cc(N)cc(C(F)(F)F)c3)c2cc1OC1CCN(C(=O)CCCCCCCSc2cccc3c2CN(C2CCC(=O)NC2=O)C3=O)CC1 (stereo partly drawn) [SIAIS561139]
25 |  |  |  | 4.6 ± 1.8 | 38.7 ± 1.1 | 0.846 ± 0.157 | COc1cc2nc(C)nc(N[C@H](C)c3cc(N)cc(C(F)(F)F)c3)c2cc1O[C@H]1CCN(CCCCCCCCCCCSc2cccc3c2CN(C2CCC(=O)NC2=O)C3=O)C1 (stereo partly drawn) [SIAIS562019]
26 |  |  |  | 30.4 ± 0.3 | 86.4 ± 0.4 | 0.822 ± 0.083 | COc1cc2nc(C)nc(N[C@H](C)c3cc(N)cc(C(F)(F)F)c3)c2cc1O[C@H]1CCN(CCCCCCCCCCCCSc2cccc3c2CN(C2CCC(=O)NC2=O)C3=O)C1 (stereo partly drawn) [SIAIS562020]
